Results: article PMC7022466, “Developing Clinically Relevant Dissolution Specifications for Oral Drug Products—Industrial and Regulatory Perspectives” (Pharmaceutics, 2019)
Where two headings read alike, the source gives them in different places.

Tests used:
[1] = design: method as in PMID 25182387; conditions: pH 4.5 and 6.8; cited from earlier work
[2] = design: method as in PMID 25182387; conditions: cited from earlier work
[3] = cited from earlier work
[4] = virtual simulation, 120 mg tablets; cited from earlier work
[5] = Food effect (high-fat meal) on absorption; assay type: in vivo; conditions: clinically relevant dose strengths
Description: (§1) In a first step, the physico-chemical characteristics of both API forms were compared in biorelevant media. Table 1 provides an overview of the solubility data and intrinsic dissolution properties. For both API forms, the compound is practically insoluble in water, irrespective of pH, but it undergoes substantial solubilization in the presence of bile. […] However, as the solubility of the newly isolated form is about 40% lower when compared to canagliflozin hemihydrate, the bioavailability in the fasted state conditions remains uncertain.
The integration of the biopharmaceutical parameters relevant for drug absorption in a more physiological context further expanded the risk assessment. For this, a PBBM model was developed and validated for JNJ-1 while using GastroPlus™ (version 8.5). Based on the available physicochemical properties, in vitro biopharmaceutical experimentation, biorelevant dissolution data, and clinical PK parameters, the model was able to simulate the in vivo observed clinical PK data.

[6] = Solubility in biorelevant media; assay type: physicochemical
Description: as §1

BCS classification = assay type: physicochemical
Description: The Biopharmaceutics Classification System (BCS) provides a well-established framework for assessing the biopharmaceutics risk of immediate release drug products, based on properties of the Active Pharmaceutical Ingredient (API) and drug product. The compounds are classified into one of four groups, according to their solubility and permeability properties. Compounds in BCS Class 1 (high solubility, high permeability) and BCS Class 3 (high solubility, low permeability) are eligible for biowaivers, i.e., the requirement for an in vivo bioequivalence study is waived if certain requirements are met. For the development of CRDS for these compounds, the BCS effectively acts as an accepted body of ‘prior knowledge’, as the ability of dissolution in simple aqueous buffers across the physiological pH range to ensure in vivo bioequivalence is already well established. This can form the basis of CRDS for BCS Class 1 and 3 compounds, unless additional data are generated to justify the further widening of these limits for a specific drug product.
During the experiments for continuous process improvements of JNJ-1, a new crystal form has been isolated from the drug substance crude crystallization step. The new form appeared to be the thermodynamically favoured form in the process conditions. […]

[7] = Intrinsic dissolution rate in biorelevant media; assay type: physicochemical
Description: as §1

Structure (SMILES)	F2 similarity test of dissolution profiles between two sites [1]	BCS class [2]	Bioequivalence of formulations from the two sites, clinical study [3]	Predicted AUC0-120 hr and Cmax bioequivalence of two sites formulations [4]	Effect of a high-fat meal on absorption [5]	Solubility FaSSIF ([6]; FaSSIF)	Solubility FeSSIF ([6]; FeSSIF)	Solubility SGF ([6]; SGF)	BCS class (BCS classification)	Intrinsic Dissolution Rate FaSSIF ([7]; FaSSIF)	Intrinsic Dissolution Rate FeSSIF ([7]; FeSSIF)	Intrinsic Dissolution Rate SGF ([7]; SGF)
Cc1ccc(-c2ncc(Cl)cc2-c2ccc(S(C)(=O)=O)cc2)cn1 [etoricoxib]	failed	BCS II	bioequivalent	bioequivalent								
Cc1ccc([C@@H]2O[C@H](CO)[C@@H](O)[C@H](O)[C@H]2O)cc1Cc1ccc(-c2ccc(F)cc2)s1.O [Registered crystal form, canagliflozin hemihydrate]					absence of any effect	540 µg/mL	5000 µg/mL	37 µg/mL	BCS class 4	13.8 µg/min/cm^2	157.9 µg/min/cm^2	3.9 µg/min/cm^2
